BindingDB's records for doi:10.1016/j.ejmech.2014.06.037 (The Second People'S Hospital of Fujian Provinc, 2014)

Target: Tumor necrosis factor (Homo sapiens, UniProt P01375)
Assay: Binding affinity to TNF-alpha (unknown origin)

Chain of Tumor necrosis factor (P01375 whole entry): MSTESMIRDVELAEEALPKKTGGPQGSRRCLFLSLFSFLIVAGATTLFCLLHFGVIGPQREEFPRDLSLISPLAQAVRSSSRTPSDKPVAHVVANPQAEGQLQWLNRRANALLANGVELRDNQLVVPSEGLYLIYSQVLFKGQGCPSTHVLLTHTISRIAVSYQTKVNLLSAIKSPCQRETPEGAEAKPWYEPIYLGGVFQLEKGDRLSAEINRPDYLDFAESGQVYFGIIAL

`C[C@H](CC(=O)C[C@@H](C)[C@H]1C[C@@H](O)[C@@]2(C)C3=C(C(=O)C[C@@]12C)[C@@]1(C)CCC(=O)C(C)(C)[C@H]1C[C@@H]3O)C(=O)O` gave a Kd of 8 nM.
